Data taken from ChEMBL document CHEMBL6071139, “Recent discovery of natural substances with cathepsin L-inhibitory activity for cancer metastasis suppression” (Eur J Med Chem, 2024).

Assays:
Procathepsin L [1] = target: T1, Procathepsin L (Homo sapiens, UniProt P07711); test: Inhibition of CTSL (unknown origin) using Z-Phe-Arg-AMC as substrate preincubated for 30 mins followed by substrate addition measured after 6 mins by fluorescence based assay
Procathepsin L [2] = target: T1, Procathepsin L; test: Inhibition of CTSL (unknown origin)
Procathepsin L [3] = target: T1, Procathepsin L; test: Inhibition of CTSL (unknown origin) using Z-Phe-Arg-AMC as substrate by fluorometric assay
[4] = Lipophilicity, logP of compound; details: octanol/water

T1 sequence (P07711 whole entry): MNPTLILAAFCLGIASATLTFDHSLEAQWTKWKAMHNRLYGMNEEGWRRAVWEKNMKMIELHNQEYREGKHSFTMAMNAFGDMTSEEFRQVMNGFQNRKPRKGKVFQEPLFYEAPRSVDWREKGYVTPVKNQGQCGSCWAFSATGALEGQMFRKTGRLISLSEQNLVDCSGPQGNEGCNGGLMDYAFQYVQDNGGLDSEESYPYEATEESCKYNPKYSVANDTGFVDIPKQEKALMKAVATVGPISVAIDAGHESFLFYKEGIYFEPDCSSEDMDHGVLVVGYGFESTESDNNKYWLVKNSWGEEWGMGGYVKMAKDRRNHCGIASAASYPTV

Structure (SMILES)	IC50 (Procathepsin L [2]) [µM]	Ki (Procathepsin L [2]) [µM]	other results
Cc1ccc(S(=O)(=O)N[C@@H](Cc2ccccc2)C(=O)OC[C@H](Cc2ccccc2)NC(=O)c2ccccc2)cc1	–	–	IC50 (Procathepsin L [1]): 30.2 µM
O=C(N[C@@H](Cc1ccccc1)C(=O)OC[C@H](Cc1ccccc1)NS(=O)(=O)c1ccc(Br)cc1)c1ccccc1	6	–	–
O=C(O)/C=C/c1ccc(O)cc1O	–	–	IC50 (Procathepsin L [3]): 930 µM
C[C@@H](/C=C/[N+](=O)[O-])NC(=O)[C@H](Cc1c[nH]c2ccccc12)NC(=O)OCc1ccccc1	–	0.0011	logP [4]: 1.61
C[C@@H](/C=C/[N+](=O)[O-])NC(=O)[C@H](Cc1ccc([N+](=O)[O-])cc1)NC(=O)OCc1ccccc1	–	0.0039	logP [4]: 1.85

Second part, led by results:

IC50 (Procathepsin L [2]) [µM]	Ki (Procathepsin L [2]) [µM]	Structure (SMILES)	other results
5.8	–	O=C(N[C@H](COC(=O)[C@H](Cc1ccccc1)NS(=O)(=O)c1cccc(Br)c1)Cc1ccccc1)c1ccccc1	–
91.2	–	O=C(N[C@H](COC(=O)[C@H](Cc1ccccc1)NC(=O)c1ccccc1)Cc1ccccc1)c1ccccc1 [ASPERPHENAMATE]	–
–	0.012	CCOC(=O)/C=C/C(=O)[C@H](CC(C)C)NC(=O)[C@H](Cc1ccccc1)NC(=O)OCc1ccccc1	–
–	0.0085	Cc1ccc(S(=O)(=O)/C=C/C(=O)[C@H](CC(C)C)NC(=O)[C@H](CC(C)C)NC(=O)OCc2ccccc2)cc1	–
